Measured values: patent US20230149398A1, “TOPICAL PHARMACEUTICAL COMPOSITIONS COMPRISING IMIDAZO[1,2-B]PYRIDAZINE COMPOUNDS” (BenevolentAI Bio Limited, priority 2020, published 2023)

System: RHE cultures (ZenSkin)
Assay: RHE irritancy test (MTT viability of RHE cultures)
Type: cell-based
Settings: 30 μL applied for 1 hour, MTT after 42 hours, relative to negative control (water), n=3
Method: RHE cultures (ZenSkin®) (surface area=0.33 cm^2) were equilibrated overnight in a humidified incubator at 37° C. and 5% CO2. The next day RHE were removed from the incubator and inspected for residual liquid on the apical surface. Excess moisture was removed with sterile cotton swab and 30 μL of a topical pharmaceutical composition was applied to triplicate cultures (n=3). Sterile water served as a negative control and 1% Triton X-100 served as positive control. Once treated, RHE cultures were returned to the incubator for 1 hour and then gently washed to remove test substance. The washed inserts were then transferred to new 12 well plates prefilled with fresh 0.5 mL media. […]
After 42-hour incubation, the tissue cultures were transferred to a new plate containing fresh MTT substrate in tissue media and placed in the incubator at 37° C. and 5% CO2 for 2 hours. […] Optical density was measured at 570 nm without using a reference filter. […]
Percent cell viability was calculated as follows: 100×[OD(sample)/OD(neg control)]. […] The test formulations were classified as irritant or non-irritant based on EU and GHS classification, according to which an irritant (R38/Category 2) is determined if the mean relative tissue viability of tissues exposed to test material is reduced below 50% of the negative control.

triton X-100
Mean percent viability: < 20%
